For experiment [1], the target named is T1, COX-1 (Homo sapiens, UniProt P23219). Nature of the experiment: Assay of COX-1 activity from U937 cell microsomes (PGE2). Type of experiment: biochemical. Set-up: Assay of COX-1 Activity from U937 Cell Microsomes; endogenous in cells; host or cells: U937 cells, 100,000 x g microsomal pellet. The conditions noted are these: U-937 cell microsomes, 15 min preincubation; read-out: COX-1 (IC50 mM) U-937. As for the experimental part:
U 937 cells are pelleted by centrifugation at 500×g for 5 min and washed once with phosphate-buffered saline and repelleted. Cells are resuspended in homogenization buffer consisting of 0.1 M Tris-HCl, pH 7.4, 10 mM EDTA, […] leupeptin, 2 μg/ml soybean trypsin inhibitor, 2 μg/ml aprotinin and 1 mM phenyl methyl sulfonyl fluoride. The cell suspension is sonicated 4 times for 10 sec and is centrifuged at 10,000×g for 10 min at 4° C. The supernatant is centrifuged at 100,000×g for 1 hr at 4° C. The 100,000×g microsomal pellet is resuspended in 0.1 M Tris-HCl, pH 7.4, 10 mM EDTA to approximately 7 mg protein/ml and stored at -80° C.
Microsomal preparations are thawed immediately prior to use, subjected to a brief sonication, and then diluted to a protein concentration of 125 μg/ml in 0.1 M Tris-HCl buffer, pH 7.4 containing 10 mM EDTA, 0.5 mM phenol, 1 mM reduced glutathione and 1 μM hematin. Assays are performed in duplicate in a final volume of 250 μl. Initially, 5 μl of DMSO vehicle or drug in DMSO are added to 20 μl of 0.1 M Tris-HCl buffer, pH 7.4 containing 10 mM EDTA in wells of a 96-deepwell polypropylene titre plate. 200 μl of the microsomal preparation are then added and pre-incubated for 15 min at room temperature before addition of 25 μl of […] arachidonic acid in […] Tris-HCl and 10 mM EDTA, pH 7.4. Samples are incubated for 40 min at room temperature and the reaction is stopped by the addition of 25 μl of 1 N HCl. Samples are neutralized with 25 μl of 1 N NaOH prior to quantitation of PGE2 content by radioimmunoassay (Dupont-NEN or Amersham assay kits). Cyclooxygenase activity is defined as the difference between PGE2 levels in samples incubated in the presence of arachidonic acid and ethanol vehicle.
In the assay, inhibition is determined by measuring the amount of prostaglandin E2 (PGE2) synthesized in the presence of arachidonic acid, cyclooxygenase-1 or cyclooxygenase-2 and a putative inhibitor.

The target in experiment [2] is T1, COX-1. Nature of the experiment: Human whole blood assay, COX-1 (clotting-induced TxB2 production). Format: cell-based. Set-up: platelets in whole blood contain a large amount of the COX-1 enzyme; endogenous in cells; host or cells: platelets in fresh human whole blood, clotting. The conditions noted are these: human whole blood, clotting-induced TxB2, 1 h; read-out: COX-1 (IC50 mM) HWB. The text has this:
(§1) As well, platelets in whole blood contain a large amount of the COX-1 enzyme. Immediately following blood clotting, platelets are activated through a thrombin-mediated mechanism. This reaction results in the production of thromboxane B2 (TxB2) via activation of COX-1. Thus, the effect of test compounds on TxB2 levels following blood clotting can be examined and used as an index for COX-1 activity. Therefore, the degree of selectivity by the test compound can be determined by measuring the levels of PGE2 after LPS induction (COX-2) and TxB2 following blood clotting (COX-1) in the same assay.
Fresh blood is collected into vacutainers containing no anticoagulants. […] The tubes are vortexed and incubated at 37° C. for 1 hour to allow blood to clot. At the end of incubation, serum is obtained by centrifugation (12,000×g for 5 min.). A 100 μL aliquot of serum is mixed with 400 μL of methanol for protein precipitation.

Experiment [3] deals with T2, COX-2 (Homo sapiens, UniProt P35354).
T2 sequence (P35354 18-604): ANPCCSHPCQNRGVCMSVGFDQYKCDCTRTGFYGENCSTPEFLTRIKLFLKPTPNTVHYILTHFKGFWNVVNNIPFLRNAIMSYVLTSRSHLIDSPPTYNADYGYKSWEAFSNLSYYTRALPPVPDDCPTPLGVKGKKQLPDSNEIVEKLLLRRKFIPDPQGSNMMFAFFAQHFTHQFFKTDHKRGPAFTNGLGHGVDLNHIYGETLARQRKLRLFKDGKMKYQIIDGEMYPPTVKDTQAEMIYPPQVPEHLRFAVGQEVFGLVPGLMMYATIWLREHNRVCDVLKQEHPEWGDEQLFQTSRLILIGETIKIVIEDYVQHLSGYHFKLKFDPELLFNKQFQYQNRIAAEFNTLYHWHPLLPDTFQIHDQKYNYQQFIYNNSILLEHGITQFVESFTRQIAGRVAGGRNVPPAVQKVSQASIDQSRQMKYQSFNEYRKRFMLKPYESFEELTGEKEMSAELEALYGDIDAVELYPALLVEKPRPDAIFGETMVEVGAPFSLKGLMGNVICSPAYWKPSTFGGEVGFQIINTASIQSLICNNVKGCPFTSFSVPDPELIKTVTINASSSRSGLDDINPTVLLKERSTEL
Description: cell-based.
Description: For cyclooxygenase assays, CHO[hCOX-1] cells from suspension cultures and CHO[hCOX-2] cells prepared by trypsinization of adherent cultures are harvested by centrifugation (300×g, 10 min) and washed once in HBSS containing 15 mM HEPES, pH 7.4, and resuspended in HBSS, 15 mM HEPES, pH 7.4, at a cell concentration of 1.5×10^6 cells/ml. Drugs to be tested are dissolved in DMSO to 66.7-fold the highest test drug concentration. […] Cells (0.3×10^6 cells in 200 μl) are preincubated with 3 μl of the test drug or DMSO vehicle for 15 min at 37° C. Working solutions of peroxide-free AA (5.5 μM and 110 μM AA for the CHO [hCOX-1] and CHO [COX-2] assays, respectively) are prepared by a 10-fold dilution of a concentrated AA solution in ethanol into HBSS containing 15 mM HEPES, pH 7.4. Cells are then challenged in the presence or absence of drug with the AA/HBSS solution to yield a final concentration of 0.5 μM AA in the CHO[hCOX-1] assay and a final concentration of 10 μM AA in the CHO[hCOX-2] assay. The reaction is terminated by the addition of 10 μl 1 N HCl followed by neutralization with 20 μl of 0.5 N NaOH. The samples are centrifuged at 300 ×g at 4° C. for 10 min, and an aliquot of the clarified supernatant is appropriately diluted for the determination of PGE2 levels using an enzyme-linked immunoassay for PGE2 (Correlate PGE2 enzyme immunoassay kit, Assay Designs, Inc.). Cyclooxygenase activity in the absence of test compounds is determined as the difference in PGE2 levels of cells challenged with arachidonic acid versus the PGE2 levels in cells mock-challenged with ethanol vehicle. Inhibition of PGE2 synthesis by test compounds is calculated as a percentage of the activity in the presence of drug versus the activity in the positive control samples.

In experiment [4] the target is T2, COX-2. Nature of the experiment: cell-based. The conditions noted are these: human whole blood, LPS-induced PGE2, 24 h.
Description: as §1
Fresh blood is collected in heparinized tubes by venipuncture from both male and female volunteers. The subjects have no apparent inflammatory conditions and have not taken any NSAIDs for at least 7 days prior to blood collection. Plasma is immediately obtained from a 2mL blood aliquot to use as blank (basal levels of PGE2). The remaining blood is incubated with LPS (100 μg/ml final concentration, Sigma Chem, #L-2630 from E. coli; diluted in 0.1% BSA (Phosphate buffered saline) for 5 minutes at room temperature. Five hundred […] aliquots of blood are incubated with either 2 μL of vehicle (DMSO) or 2 μL of a test compound at final concentrations varying from 10 nM to 30 μM for 24 hours at 37° C. At the end of the incubation, the blood is centrifuged at 12,000×g for 5 minutes to obtain plasma. A 100 μL aliquot of plasma is mixed with 400 μL of methanol for protein precipitation. The supernatant is obtained and is assayed for PGE2 using a radioimmunoassay kit (Amersham, RPA#530) after conversion of PGE2 to its methyl oximate derivative according to the manufacturer's procedure. […]

Where [5] appears, read: CHO[hCOX-2] cells, 10 μM AA, 15 min preincubation, read-out: COX-2 (IC50 mM) CHO.

Where two headings read alike, the source gives them in different places. Some results are limits rather than exact numbers.

T1 sequence (P23219 24-599): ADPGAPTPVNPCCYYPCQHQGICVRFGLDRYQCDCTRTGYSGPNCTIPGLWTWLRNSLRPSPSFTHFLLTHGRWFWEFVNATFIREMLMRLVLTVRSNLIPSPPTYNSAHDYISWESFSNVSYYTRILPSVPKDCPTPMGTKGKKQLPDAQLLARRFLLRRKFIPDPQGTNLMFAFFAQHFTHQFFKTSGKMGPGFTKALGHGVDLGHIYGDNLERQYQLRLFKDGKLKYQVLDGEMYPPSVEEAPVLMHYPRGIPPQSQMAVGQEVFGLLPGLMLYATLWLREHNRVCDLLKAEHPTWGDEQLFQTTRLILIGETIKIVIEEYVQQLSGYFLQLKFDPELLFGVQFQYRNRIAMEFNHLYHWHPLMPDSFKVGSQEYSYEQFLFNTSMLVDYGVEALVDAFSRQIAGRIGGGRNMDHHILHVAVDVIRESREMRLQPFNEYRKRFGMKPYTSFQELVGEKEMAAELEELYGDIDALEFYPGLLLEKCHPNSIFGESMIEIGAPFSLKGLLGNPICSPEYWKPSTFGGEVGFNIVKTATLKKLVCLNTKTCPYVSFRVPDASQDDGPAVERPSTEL

For `C[C@]1(O)CCC[C@H]1Oc1ncc(C(F)(F)F)cc1-c1ccc(S(C)(=O)=O)cc1` (single isomer, unassigned) [Example 31, (+)-2-(cis-2-Hydroxy-2-methylcyclopentyloxy)-3-(4-methylsulfonyl)phenyl-5-trifluoromethylpyridine], the IC50 was 0.037 mM in experiment [1] and above 0.1 mM in experiment [2].
`C[C@H](Oc1ncc(C(F)(F)F)cc1-c1ccc(S(C)(=O)=O)cc1)C(C)(C)O` [Example 16, 2-((2S)-3-Hydroxy-3-methyl-2-butyloxy)-3-(4-methylsulfonyl)phenyl-5-trifluoromethylpyridine]: the IC50 in experiment [3] (setting [5]) was 430 nM; in experiment [4] (read-out: COX-2 (IC50 mM) HWB), 0.0006 mM; in experiment [1] it was above 0.01 mM.
Turning to `C[C@@H](Oc1ncc(Cl)cc1-c1ccc(S(C)(=O)=O)cc1)C(C)(C)O` [Example 18, 5-Chloro-2-((2R)-3-Hydroxy-3-methyl-2-butyloxy)-3-(4-methylsulfonyl)phenylpyridine], the IC50 is 80 nM in experiment [3] (setting [5]), 0.0004 mM in experiment [4] (read-out: COX-2 (IC50 mM) HWB) and above 0.01 mM in experiment [1].
In the same order, the values of `CCC(Oc1ncc(C(F)(F)F)cc1-c1ccc(S(C)(=O)=O)cc1)C(C)(C)O` (centres unmarked) [Example 19, 2-(4-Hydroxy-4-methyl-3-pentyloxy)-3-(4-methylsulfonyl)phenyl-5-trifluoromethylpyridine] are 320 nM, 0.0005 mM and above 0.01 mM.
For `CCC(O)(CC)[C@H](C)Oc1ncc(C(F)(F)F)cc1-c1ccc(S(C)(=O)=O)cc1` [Example 20, 2-((2S)-3-Ethyl-3-hydroxy-2-pentyloxy)-3-(4-methylsulfonyl)phenyl-5-trifluoromethylpyridine] the same measures were 400 nM, 0.0016 mM and above 0.01 mM.
In the same order, the values of `C[C@@H](O)[C@@H](C)Oc1ncc(Cl)cc1-c1ccc(S(C)(=O)=O)cc1` [Example 24, 5-Chloro-2-((2R,3R)-3-hydroxy-2-butyloxy)-3-(4-methylsulfonyl)phenylpyridine] are 70 nM, 0.0015 mM and above 0.01 mM.
With `C[C@H](O)[C@@H](C)Oc1ncc(C(F)(F)F)cc1-c1ccc(S(C)(=O)=O)cc1` [Example 25, 2-((2R,3S)-3-Hydroxy-2-butyloxy)-3-(4-methylsulfonyl)phenyl-5-trifluoromethylpyridine], the IC50 is 60 nM in experiment [3] (setting [5]), 0.0036 mM in experiment [4] (read-out: COX-2 (IC50 mM) HWB) and above 0.01 mM in experiment [1].
In the same order, the values of `C[C@H](O)CCOc1ncc(C(F)(F)F)cc1-c1ccc(S(C)(=O)=O)cc1` [Example 38, 2-((3S)-3-Hydroxy-1-butyloxy)-3-(4-methylsulfonyl)phenyl-5-trifluoromethylpyridine] are 260 nM, 0.0059 mM and 0.003 to 0.01 mM.
As for `C[C@@H](O)CCOc1ncc(C(F)(F)F)cc1-c1ccc(S(C)(=O)=O)cc1` [Example 39, 2-((3R)-3-Hydroxy-1-butyloxy)-3-(4-methylsulfonyl)phenyl-5-trifluoromethylpyridine], the IC50 in experiment [3] (setting [5]) is 200 nM; in experiment [4] (read-out: COX-2 (IC50 mM) HWB) it was 0.0134 mM; in experiment [1] it was above 0.01 mM.
For `CC(C)(O)CCOc1ncc(C(F)(F)F)cc1-c1ccc(S(C)(=O)=O)cc1` [Example 40, 2-(3-Hydroxy-3-methyl-1-butyloxy)-3-(4-methylsulfonyl)phenyl-5-trifluoromethylpyridine] the same measures were 200 nM, 0.0039 mM and 0.01 mM.
In the same order, the values of `C[C@H](CCO)Oc1ncc(C(F)(F)F)cc1-c1ccc(S(C)(=O)=O)cc1` [Example 41, 2-((2R)-4-Hydroxy-2-butyloxy)-3-(4-methylsulfonyl)phenyl-5-trifluoromethylpyridine] are 40 nM, 0.0004 mM and above 0.01 mM.
In the same order, the values of `CC(C)(O)CSc1ncc(Cl)cc1-c1ccc(S(C)(=O)=O)cc1` [Example 44, 5-Chloro-2-(2-Hydroxy-2-methyl-1-thiopropyloxy)-3-(4-methylsulfonyl)phenylpyridine] are 40 nM, 0.0015 mM and above 0.01 mM.
As for `CCC(O)(CC)CSc1ncc(C(F)(F)F)cc1-c1ccc(S(C)(=O)=O)cc1` [Example 47, 2-(2-Ethyl-2-hydroxy-1-thiobutyloxy)-3-(4-methylsulfonyl)phenyl-5-trifluoromethylpyridine], the results for the IC50 in experiment [3] (setting [5]), in experiment [4] (read-out: COX-2 (IC50 mM) HWB) and in experiment [1] were 20 nM, 0.0006 mM and 0.003 to 0.01 mM, respectively.
In the same order, the values of `CCC(O)(CC)CSc1ncc(Cl)cc1-c1ccc(S(C)(=O)=O)cc1` [Example 48, 5-Chloro-2-(2-ethyl-2-hydroxy-1-thiobutyloxy)-3-(4-methylsulfonyl)phenylpyridine] are 70 nM, 0.0011 mM and 0.001 to 0.003 mM.
For `CS(=O)(=O)c1ccc(-c2cc(C(F)(F)F)cnc2SCC2(O)CCCC2)cc1` [Example 49, 2-(1-Hydroxycyclopentyl)thiomethoxy-3-(4-methylsulfonyl)phenyl-5-trifluoromethylpyridine] the same measures were 160 nM, 0.0012 mM and 0.0003 mM.
With `CC(CO)Sc1ncc(C(F)(F)F)cc1-c1ccc(S(C)(=O)=O)cc1` (centres unmarked) [Example 50, 2-(3-Hydroxy-2-thiopropyloxy)-3-(4-methylsulfonyl)phenyl-5-trifluoromethylpyridine], the 50% inhibitory concentration (IC50) in experiment [3] was 50 nM; in experiment [4] (COX-2 (IC50 mM) HWB), 0.0005 mM; in experiment [1], 0.001 to 0.003 mM.

What is called IC50 is the concentration that gives 50% inhibition.

Source of the values: US6046217A, “2,3,5-trisubstituted pyridines as inhibitors of cyclooxygenase-2” (Merck Frosst Canada & Co., priority 1998, dated 2000).
